Several values for one entry are separate records, joined by “and”; a condition that tells them apart may be missing. Identical values can stand only once. Like-named read-outs stand apart in the source and are kept apart here. Where a SMILES comes first, the peptide text is derived from it. [ ]: non-standard residue; d: D form. The star is where a group is joined. NHCH2CH2OH = OCCN*; For = O=C*
Experiments:
[1] = H+/Na+ transport assay of purified peptides; details: for Supplementary Figure 5 dose-response value (H+/Na+ transport): three replicate lines
Description: First, we evaluated the ion channel function of 1 using liposomes. To mimic a negatively charged Gram-positive bacterial membrane, the liposomes were prepared as large unilamellar vesicles (LUVs) comprising a 19:1 mixture of egg yolk phosphatidylcholine (EYPC) and egg yolk phosphatidylglycerol (EYPG)[57]. Pyranine, a pH-dependent fluorescent dye[58], was encapsulated in the LUVs and a pH gradient was applied across the membrane. H^+/Na^+ transport induced by a peptide was monitored by changes in the fluorescence intensity of pyranine.

[2] = test system: MSSA1 (methicillin-susceptible Staphylococcus aureus); type: cell-based
Description: (§1) Evaluation of antibacterial spectra of purified peptides. The MIC assay was performed according to the Clinical and Laboratory Standards Institute protocols. The antibacterial activities of the purified peptides A1, B01–B04, B11–B13, B21, and B22 were measured using the broth microdilution method. 6 Serial dilutions of the peptides were prepared in cation adjusted Mueller Hinton Broth. Each dilution (100 µL) was dispensed to each well of the round-bottom plate to obtain final concentrations ranging from 64 µg/mL to 0.00024 µg/mL. Bacteria were grown at 37 °C overnight on Tryptic Soy Broth or Mueller Hinton Broth agar plates.
(§2) The bacterial colonies were suspended in 0.9% saline to obtain OD 625 of 0.08–0.13 using a spectrophotometer UV-1280 (Shimadzu). The resultant suspension was diluted with cation adjusted Mueller Hinton Broth (1/20). The resultant mixture (10 .0 µL) was inoculated to each well of the plates (approximately 5 × 10^4 CFU/well), mixed, and incubated at 37 °C for 18–24 h. The MIC value was determined as the minimum concentration that inhibited growth of bacteria. For Streptococcus species, cation adjusted Mueller Hinton Broth supplemented with 5% laked horse blood was used. […]

[3] = test system: Streptococcus agalactiae JCM5671; details: for Antibacterial activity MIC: JCM5671; for antibacterial activity/MIC: S. agalactiae
Description: (§3) Third, 1 was subjected to five pathogenic Gram-positive bacteria.
as §1, §2

[4] = test system: Enterococcus faecalis JCM5803; details: for antibacterial activity/MIC: E. faecalis; for Antibacterial activity MIC: JCM5803
Description: as §3, §1, §2

[5] = test system: Streptococcus pneumoniae NBRC 102642; details: for Antibacterial activity MIC: NBRC 102642; for antibacterial activity/MIC: S. pneumoniae
Description: as §3, §1, §2

[6] = test system: Streptococcus pyogenes SSI-9; details: for antibacterial activity/MIC: S. pyogenes; for Antibacterial activity MIC: SSI-9
Description: as §3, §1, §2

[7] = test system: Listeria monocytogenes 10403S; details: for Antibacterial activity MIC: 10403S; for antibacterial activity/MIC: L. monocytogenes
Description: as §3, §1, §2

[8] = Membrane disruption assay of purified peptides (carboxyfluorescein leakage); type: biochemical; design: key: % lysis; Triton X-100 = 100%, DMSO = 0%; details: three replicate lines
Description: Membrane disruption assay of purified peptides. 5(6)-Carboxyfluorescein (CF)-encapsulated large […]
through Nuclepore polycarbonate filters mounted in the mini-extruder apparatus. A solution of egg yolk phosphatidylcholine (EYPC, 22.0 mg, 28.9 µmol) in CHCl3 (225 µL) and egg yolk phosphatidylglycerol (1.2 0 […]
mM HEPES, 100 mM NaCl, 20 mM CF) by sonication. After five -times freeze-thaw cycles, the lipid […]
concentration of the resultant CF -encapsulated LUV suspension was deduced from the phosphatidylcholine concentration determined by using Phospholipid C -Test Wako. The lipid concentration of the LUV […]
as 5-fold serial dilution. The solution of peptide (2.0 µL) and the CF-encapsulated LUV suspension (200 […]
The resultant suspension was incubated at room temperature for 30 min. The fluorescence (Ex. 490 nm/Em. 517 nm) of each well was measured on Gemini EM microplate reader. Triton X-100/H2O (5/95, 3.0 µL), DMSO (2.0 µL), and the LUV suspension were mixed in each plate to determine 100% lysis. […]
was used to determine 0% lysis. The membrane disruption activities of tested peptides ( I) were normalized against 100% lysis by Triton X-100 (Imax) and 0% lysis by DMSO ( I0) according to Supplementary Equation 2 , where Ix is the fluorescence intensity.
The membrane disruption activities of the purified peptides were plotted as means of three replicates (Supplementary Figure 1).

[9] = read-out: EC50, H+/Na+ transport assay, 1st experiment
[10] = read-out: EC50, H+/Na+ transport assay, 2nd experiment
[11] = read-out: EC50, H+/Na+ transport assay, 3rd experiment
[12] = read-out: H+/Na+ transport activity EC50, EYPC/EYPG (19:1) LUVs
[13] = read-out: H+/Na+ transport activity/EC50, mean ± SD of three independent experiments

EC50 [1, 9]	EC50 [1, 10]	EC50 [1, 11]	EC50 [1, 12]	EC50 [1, 13]	antibacterial activity/MIC [2]	Antibacterial activity MIC [3]	antibacterial activity/MIC [3]	antibacterial activity/MIC [4]	Structure (SMILES)	Supplementary Figure 5 dose-response value (H+/Na+ transport) ([1]; concentration 0.000512 nM)	Supplementary Figure 5 dose-response value (H+/Na+ transport) ([1]; concentration 0.00256 nM)	Supplementary Figure 5 dose-response value (H+/Na+ transport) ([1]; concentration 0.0128 nM)	Supplementary Figure 5 dose-response value (H+/Na+ transport) ([1]; concentration 0.064 nM)	Supplementary Figure 5 dose-response value (H+/Na+ transport) ([1]; concentration 0.32 nM)	Supplementary Figure 5 dose-response value (H+/Na+ transport) ([1]; concentration 1.6 nM)	Supplementary Figure 5 dose-response value (H+/Na+ transport) ([1]; concentration 8 nM)	Supplementary Figure 5 dose-response value (H+/Na+ transport) ([1]; concentration 40 nM)	Supplementary Figure 5 dose-response value (H+/Na+ transport) ([1]; concentration 200 nM)	Supplementary Figure 5 dose-response value (H+/Na+ transport) ([1]; concentration 1000 nM)	Supplementary Figure 5 dose-response value (H+/Na+ transport) ([1]; concentration 5000 nM)	also measured
3.08 nM	1.68 nM	5.38 nM	3.4 nM	3.38 ± 1.87 nM	32 µg/mL	8.6 µM	16 µg/mL	0.25 µg/mL	CC(C)C[C@@H](NC(=O)[C@H](C)NC(=O)[C@H](NC(=O)[C@H](C)NC(=O)CNC(=O)[C@@H](NC=O)C(C)C)C(C)C)C(=O)N[C@H](C(=O)N[C@@H](C(=O)N[C@@H](Cc1c[nH]c2ccccc12)C(=O)N[C@@H](C(=O)N[C@@H](Cc1c[nH]c2ccccc12)C(=O)N[C@H](CC(C)C)C(=O)N[C@@H](Cc1c[nH]c2ccccc12)C(=O)N[C@H](CC(C)C)C(=O)N[C@@H](Cc1c[nH]c2ccccc12)C(=O)NCCO)C(C)C)C(C)C)C(C)C [B02] (For-VGA[dV]A[dL]V[dV]W[dV]W[dL]W[dL]W-NHCH2CH2OH)	0.2643 and 0.7827 and 0.1241	2.146 and 0.0547 and 1.671	4.163 and 0.6112 and 1.64	7.246 and 2.883 and 3.652	11.0985 and 10.392 and 10.3413	29.1914 and 27.2825 and 29.9486	56.3118 and 49.6431 and 51.0872	73.3306 and 69.0608 and 69.1921	73.6961 and 72.6071 and 72.9778	75.3536 and 79.2012 and 75.9728	75.4417 and 72.7674 and 77.9824	Antibacterial activity MIC [4]: 0.13 µM; Antibacterial activity MIC [5]: 0.0083 µM; antibacterial activity/MIC [5]: 0.016 µg/mL; antibacterial activity/MIC [6]: 0.13 µg/mL; Antibacterial activity MIC [6]: 0.067 µM; Antibacterial activity MIC [7]: 2.1 µM; antibacterial activity/MIC [7]: 4 µg/mL; Supplementary Figure 1 dose-response value ([8]; concentration 0.000512 nM): 9.02 and 15.736 and 15.2512; Supplementary Figure 1 dose-response value ([8]; concentration 0.00256 nM): 10.3575 and 0.7916 and 7.576; Supplementary Figure 1 dose-response value ([8]; concentration 0.0128 nM): 7.7612 and 17.627 and 12.0633; Supplementary Figure 1 dose-response value ([8]; concentration 0.064 nM): 6.7018 and 5.872 and 12.3383; Supplementary Figure 1 dose-response value ([8]; concentration 0.32 nM): 3.446 and 4.916 and 7.303; Supplementary Figure 1 dose-response value ([8]; concentration 1.6 nM): 10.6531 and 8.102 and 5.996; Supplementary Figure 1 dose-response value ([8]; concentration 8 nM): 14.5931 and 12.2206 and 13.5025; Supplementary Figure 1 dose-response value ([8]; concentration 40 nM): 11.4708 and 19.6235 and 9.068; Supplementary Figure 1 dose-response value ([8]; concentration 200 nM): 17.1246 and 21.9524 and 27.5088; Supplementary Figure 1 dose-response value ([8]; concentration 1000 nM): 23.4943 and 22.4951 and 16.9683; Supplementary Figure 1 dose-response value ([8]; concentration 5000 nM): 38.5863 and 36.6933 and 43.5874
1.77 nM	1.01 nM	1.18 nM	1.3 nM	1.32 ± 0.4 nM	32 µg/mL	17 µM	32 µg/mL	1 µg/mL	CC(C)C[C@@H](NC(=O)[C@H](C)NC(=O)CNC(=O)[C@@H](NC=O)C(C)C)C(=O)N[C@@H](C)C(=O)N[C@@H](C(=O)N[C@H](C(=O)N[C@@H](C(=O)N[C@@H](Cc1c[nH]c2ccccc12)C(=O)N[C@@H](C(=O)N[C@@H](Cc1c[nH]c2ccccc12)C(=O)N[C@@H](C(=O)N[C@@H](Cc1c[nH]c2ccccc12)C(=O)N[C@@H](C(=O)N[C@@H](Cc1c[nH]c2ccccc12)C(=O)NCCO)C(C)C)C(C)C)C(C)C)C(C)C)C(C)C)C(C)C [B03] (For-VGA[dL]A[dV]V[dV]W[dV]W[dV]W[dV]W-NHCH2CH2OH)	3.426 and 4.542 and 4.454	4.063 and 4.369 and 6.1349	8.086 and 3.88 and 7.199	11.12 and 10.2864 and 11.0165	19.1274 and 20.4439 and 18.4811	44.4719 and 42.2282 and 45.2028	70.1046 and 68.0194 and 61.5034	68.5122 and 68.0449 and 67.6654	74.8622 and 71.9344 and 68.9589	72.6177 and 71.4474 and 69.5798	79.6141 and 83.2523 and 73.0858	Antibacterial activity MIC [4]: 0.54 µM; Antibacterial activity MIC [5]: 0.0042 µM; antibacterial activity/MIC [5]: 0.0078 µg/mL; antibacterial activity/MIC [6]: 0.13 µg/mL; Antibacterial activity MIC [6]: 0.068 µM; Antibacterial activity MIC [7]: 4.3 µM; antibacterial activity/MIC [7]: 8 µg/mL; Supplementary Figure 1 dose-response value ([8]; concentration 0.000512 nM): 5.505 and 15.3461 and 13.2964; Supplementary Figure 1 dose-response value ([8]; concentration 0.00256 nM): 8.036 and 15.949 and 9.456; Supplementary Figure 1 dose-response value ([8]; concentration 0.0128 nM): 13.2228 and 16.5208 and 14.0976; Supplementary Figure 1 dose-response value ([8]; concentration 0.064 nM): 9.063 and 6.7749 and 3.531; Supplementary Figure 1 dose-response value ([8]; concentration 0.32 nM): 12.8598 and 15.0844 and 11.8922; Supplementary Figure 1 dose-response value ([8]; concentration 1.6 nM): 5.299 and 14.829 and 8.996; Supplementary Figure 1 dose-response value ([8]; concentration 8 nM): 22.9494 and 19.7369 and 18.966; Supplementary Figure 1 dose-response value ([8]; concentration 40 nM): 32.4215 and 16.7903 and 25.2195; Supplementary Figure 1 dose-response value ([8]; concentration 200 nM): 37.1629 and 34.3426 and 29.4644; Supplementary Figure 1 dose-response value ([8]; concentration 1000 nM): 37.6674 and 31.8257 and 42.0921; Supplementary Figure 1 dose-response value ([8]; concentration 5000 nM): 72.3831 and 71.3728 and 73.9246

From publication PMC7531004, “Discovery of gramicidin A analogues with altered activities by multidimensional screening of a one-bead-one-compound library” (Nature Communications, 2020)
